Test results: patent US11401255B2, “Small molecule activators of Parkin enzyme function” (Mayo Foundation for Medical Education and Research, priority 2016, dated 2022)

Experiments:
[1] = test system: TA 100; test: Ames Test, strain TA 100
From the text: (§1) The test used amino acid-dependent strains of Salmonella typhimurium and Escherichia coli to detect point mutations which involved substitution, addition or deletion of one or a few DNA base pairs. Point mutations were introduced in the histidine (Salmonella typhimurium) or the tryptophan (Escherichia coli) operon, making the tester strains incapable of producing these amino acids. The test detected mutations that revert the mutations present in the bacteria, restoring the functional capability to synthesize histidine or tryptophan. The revertant bacteria were detected by the ability to grow in the absence of the amino acid required by the parent test strain. A mutagenic potential of a tested compound was assessed by exposing these bacterial strains to different concentrations of the compounds and estimating number of revertant colonies grown in the absence (trace quantities) of the amino acid.
(§2) DMSO was used as the negative control.
(§3) For each experiment, tester strain cultures were grown overnight in Oxoid nutrient broth #2 at 37° C. with shaking at 235 rpm to a density of 1-2×10^9 colony forming units/mL (OD540˜2).
(§4) The tester strain (10 μL of night culture) was mixed with the test agent (10 µL of the DMSO stock) and GM liquid medium (30 μL). The obtained mixture was incubated at room temperature for 5 min in a sterile 1.5 mL tube. Then, to the tube was added 200 μL of molten top agar stored at 44° C. to prevent solidifying. After mixing with a pipette, the mixture was poured onto the surface of a GM agar plate (2.0 mL of GM agar per plate). After solidifying the top agar, the plate was inverted and incubated at 37° C. for 48 hours. Then, results were expressed as number of revertant colonies per plate.

[2] = test system: Salmonella typhimurium and Escherichia coli tester strains; test: Bacterial reverse mutation assay (Ames Test), all tester strains; conditions: for mutagenic potential for the tester strains: 50, 100 and 200 μM; for precipitate in strain-compound-GM medium mixture: final concentration 200 μM
From the text: as §1, §2, §3, §4

[3] = molecular target: Parkin (Homo sapiens (Human), UniProt O60260); test: Primary HCI assay of EGFP-Parkin translocation to mitochondria; type: cell-based; conditions: for activity in EGFP-Parkin translocation to damaged mitochondria: 1 μM; for EC50: primary assay screen, Parkin translocation to mitochondria
Sequence of Parkin (O60260 whole entry): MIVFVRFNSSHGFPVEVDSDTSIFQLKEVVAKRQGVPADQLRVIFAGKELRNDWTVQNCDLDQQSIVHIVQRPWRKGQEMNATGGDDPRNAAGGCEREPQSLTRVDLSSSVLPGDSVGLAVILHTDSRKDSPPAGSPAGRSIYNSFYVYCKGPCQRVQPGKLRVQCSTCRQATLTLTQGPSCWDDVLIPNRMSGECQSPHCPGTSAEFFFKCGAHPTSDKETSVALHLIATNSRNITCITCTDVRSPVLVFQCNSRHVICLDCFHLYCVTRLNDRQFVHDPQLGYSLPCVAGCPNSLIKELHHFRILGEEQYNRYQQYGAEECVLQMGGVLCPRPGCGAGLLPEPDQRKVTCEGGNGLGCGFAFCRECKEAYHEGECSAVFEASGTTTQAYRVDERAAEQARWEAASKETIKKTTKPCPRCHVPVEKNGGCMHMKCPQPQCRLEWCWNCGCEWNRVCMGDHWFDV
Method: GFP-Parkin is localized throughout the cell in unstressed cells but translocates to mitochondria when the mitochondrial membrane potential is compromised and Parkin is activated. After automated image acquisition of fixed cells, regions of interest of each cell were defined with the analysis software. […] To quantify the relocalization of GFP-Parkin to mitochondria, the ratio of the GFP intensity in the cytoplasm and the nucleus was calculated. Under non-stressed condition, this ratio is about 1. FIG. 1B is a bar graph showing the results of the assay with a Z factor (Z′) of 0.5-0.8, which indicates its robustness and usefulness as a screening assay. Validation of the assay has been performed by using PINK1 siRNA.
FIGS. 2A-2C show a primary HCI assay with CCCP titration. FIG. 2A is a graphic description of the primary HCI assay of EGFP-Parkin translocation. HeLa cells stably expressing GFP-Parkin were seeded with 1350 cells per well in 384-well plates (25 μL per well). Cells were allowed to attach overnight before drug was added 2× concentrated in a volume of 25 μL in triplicates. After 2 h, 50 μL of a 2× low-dose CCCP (yielding a final concentration of 3.5 μM CCCP) was added to all wells that contained test compounds and for the negative control. For positive control wells, CCCP was added in a final concentration of 10 μM. After 2 h incubation with CCCP, cells were fixed and labeled with Hoechst for at least 1 h before cells were imaged. […] Values were being normalized to negative and positive control values and plotted as % activity. Z′ was calculated for quality control. Positive controls were indicated in green, negative control wells in red. Drugs that lead to more than 50% activity are considered positive (blue).
Functional testing of compounds was performed using an established primary HCI assay for Parkin translocation, which correlates well with enzymatic activation (Fiesel et al., J. Cell Science (2014) 127:3488-3504; Fiesel et al., Human Mutation (2015) 36:774-786). In brief, 1400 HeLa cells stably expressing EGFP-Parkin were seeded into optical 384-well plates (Greiner BioOne) in 25 μL media and allowed to adhere for 40 h. Compounds 1, 2, 3, 4, and 31 were added to the plate as 2× concentrated stocks. Control wells were treated with equal volume of DMSO in media. After 2 h, unless otherwise stated, CCCP was added as 2× concentrated stock with a final assay concentration of 10 μM for PC wells and 3.5 μM for test and NC wells. This low dose of CCCP was experimentally determined by a dose response curve of CCCP to result in no Parkin translocation (FIG. 13). After another 2 h, cells were fixed in 4% paraformaldehyde for 10 min and stained with Hoechst 33342 (1:5000, Invitrogen) before plates were imaged and analyzed.
Image acquisition was performed on a BD Pathway 855 with the Attovision V1.6 software (BD Biosciences). Wells were imaged with a 20× objective using a 2×2 montage with laser autofocus. EGFP exposure time was 0.0175 sec, Hoechst 0.0015 sec. Raw images were not processed and directly analyzed using a build-in ‘RING—2 output’ algorithm. Values were exported and normalized using JMP 11 software and transferred to GraphPad Prism 7 for quality control, graphing and curve fitting for DRCs with a variable slope using four parameters. […] Values were normalized to both PC and NC values from 24 wells each per plate and the Z′ score was calculated. Plates with Z′<0.5 were repeated.

[4] = test system: CYP450 panel (1A2, 2C9, 2C19, 2D6, 3A4); test: P450-Glo CYP450 inhibition, whole panel; type: in vitro ADME; conditions: 10 μM
Method: All test points were performed in quadruplicates. Control membranes (without CYPs) represented the Negative control (baseline). DMSO final concentration was 0.25%.

SMILES	Fold increase (over baseline) ([1]; TA 100, 50 μM)	Mean ± SD ([1]; TA 100, 50 μM)	Fold increase (over baseline) ([1]; TA 100, 100 μM)	Mean ± SD ([1]; TA 100, 100 μM)	Fold increase (over baseline) ([1]; TA 100, 200 μM)	Mean ± SD ([1]; TA 100, 200 μM)	mutagenic potential for the tester strains [2]	precipitate in strain-compound-GM medium mixture [2]	activity in EGFP-Parkin translocation to damaged mitochondria [3]	EC50 [3]	mutagenic activity ([1]; TA 100, both 100 and 200 μM)	inhibition of all 5 tested CYP450 [4]
O=C(Cn1cnc2c1CCCC2)Nc1ccc(-c2ccccc2)cc1 [Compound 1]	0	0 ± 0 revertant colonies per plate	0	0 ± 0 revertant colonies per plate	0	0 ± 0 revertant colonies per plate	no mutagenic potential	Precipitate was observed	showed activity	371 nM	–	–
CC(C)c1nccn1CC(=O)Nc1ccc(-c2ccccc2)cc1 [Compound 2]	1.37	8.5 ± 6.36 revertant colonies per plate	0.97	6 ± 2.83 revertant colonies per plate	1.61	10 ± 0 revertant colonies per plate	no mutagenic potential	–	showed activity	549 nM	–	–
CC(C)(C)Sc1ccc(NC(=O)Cn2ccnc2)cc1 [Compound 3]	0.85	5.5 ± 0.7 revertant colonies per plate	>32	>200 revertant colonies per plate	>48	>300 revertant colonies per plate	–	–	showed activity	405 nM	mutagenic activity	very high inhibition
O=C(Cn1ccnc1-c1ccccn1)Nc1ccc(-c2ccccc2)cc1 [Compound 4]	0.89	5.5 ± 2.12 revertant colonies per plate	1.2	7.5 ± 3.54 revertant colonies per plate	0.65	4 ± 1.41 revertant colonies per plate	no mutagenic potential	Precipitate was observed	showed activity	164 nM	–	did not show a significant inhibition
Cc1nc2c(c(N3CCCN(Cc4ccccc4)CC3)n1)CCCC2 [Compound 31]	1.04	6.5 ± 0.7 revertant colonies per plate	0.97	6 ± 0 revertant colonies per plate	0.97	6 ± 1.41 revertant colonies per plate	no mutagenic potential	–	showed activity	990 nM	–	–
